Experimental data published in US12258328B2, “6-membered heteroaryl-containing aminopyridine compounds as EGFR inhibitors” (YUHAN CORPORATION, priority 2021, dated 2025).

Experiments:
[1] = target: EGFR L858R/T790M/C797S (Homo sapiens, UniProt P00533, C797S/L858R/T790M); test: Biochemical EGFR kinase assay (Lance Ultra TR-FRET), triple mutant L858R/T790M/C797S; details: Km ATP; read-out: IC50 L858R/T790M/C797S (nM) Km ATP
In short: (§1)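 In this biochemical assay, phosphorylation after a one-hour room-temperature reaction was detected with europium-labelled anti-phosphopeptide antibody at 2 nM final concentration.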

[2] = target: EGFR wildtype (Homo sapiens, UniProt P00533); test: Biochemical EGFR kinase assay (Lance Ultra TR-FRET), wildtype; details: Km ATP; read-out: IC50 WT (nM) Km ATP
Sequence of EGFR wildtype (P00533 25-1210): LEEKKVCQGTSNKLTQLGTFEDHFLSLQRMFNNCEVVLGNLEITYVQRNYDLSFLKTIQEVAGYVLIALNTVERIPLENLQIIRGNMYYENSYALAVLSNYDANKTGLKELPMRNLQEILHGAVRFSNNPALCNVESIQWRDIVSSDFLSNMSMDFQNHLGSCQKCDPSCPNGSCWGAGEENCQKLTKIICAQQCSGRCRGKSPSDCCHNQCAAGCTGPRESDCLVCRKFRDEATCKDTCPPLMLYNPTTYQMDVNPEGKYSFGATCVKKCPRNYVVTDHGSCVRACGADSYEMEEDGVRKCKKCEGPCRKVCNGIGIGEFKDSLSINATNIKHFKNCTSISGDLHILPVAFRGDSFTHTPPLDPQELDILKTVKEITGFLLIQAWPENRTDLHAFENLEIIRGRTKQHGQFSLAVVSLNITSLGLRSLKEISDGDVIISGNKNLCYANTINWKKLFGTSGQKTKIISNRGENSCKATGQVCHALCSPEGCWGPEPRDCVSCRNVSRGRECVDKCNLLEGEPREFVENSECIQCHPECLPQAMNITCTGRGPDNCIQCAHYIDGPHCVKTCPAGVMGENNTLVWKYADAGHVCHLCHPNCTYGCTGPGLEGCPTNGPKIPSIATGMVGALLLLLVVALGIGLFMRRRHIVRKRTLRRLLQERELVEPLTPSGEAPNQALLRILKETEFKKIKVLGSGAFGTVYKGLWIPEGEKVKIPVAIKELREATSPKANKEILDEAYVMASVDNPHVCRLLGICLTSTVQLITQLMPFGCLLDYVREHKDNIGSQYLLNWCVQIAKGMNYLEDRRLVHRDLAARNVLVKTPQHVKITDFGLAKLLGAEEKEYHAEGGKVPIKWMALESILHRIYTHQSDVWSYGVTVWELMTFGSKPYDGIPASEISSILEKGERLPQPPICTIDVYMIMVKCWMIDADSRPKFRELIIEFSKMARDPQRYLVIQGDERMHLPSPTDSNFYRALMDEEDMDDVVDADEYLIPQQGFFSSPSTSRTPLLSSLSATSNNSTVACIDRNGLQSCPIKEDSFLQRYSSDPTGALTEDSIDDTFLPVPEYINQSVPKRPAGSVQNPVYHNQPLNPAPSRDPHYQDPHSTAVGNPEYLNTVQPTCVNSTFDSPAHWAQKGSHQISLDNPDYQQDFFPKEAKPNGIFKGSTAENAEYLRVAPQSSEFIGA
In short: as §1

[3] = target: EGFR del19/C797S (Homo sapiens, UniProt P00533, C797S/DEL746-750); test: Biochemical EGFR kinase assay (Lance Ultra TR-FRET), double mutant del19/C797S; details: Km ATP; read-out: IC50 del19/C797S (nM) Km ATP
Sequence of EGFR del19/C797S (P00533 with tags, fused parts or gaps DEL746-750/C797S): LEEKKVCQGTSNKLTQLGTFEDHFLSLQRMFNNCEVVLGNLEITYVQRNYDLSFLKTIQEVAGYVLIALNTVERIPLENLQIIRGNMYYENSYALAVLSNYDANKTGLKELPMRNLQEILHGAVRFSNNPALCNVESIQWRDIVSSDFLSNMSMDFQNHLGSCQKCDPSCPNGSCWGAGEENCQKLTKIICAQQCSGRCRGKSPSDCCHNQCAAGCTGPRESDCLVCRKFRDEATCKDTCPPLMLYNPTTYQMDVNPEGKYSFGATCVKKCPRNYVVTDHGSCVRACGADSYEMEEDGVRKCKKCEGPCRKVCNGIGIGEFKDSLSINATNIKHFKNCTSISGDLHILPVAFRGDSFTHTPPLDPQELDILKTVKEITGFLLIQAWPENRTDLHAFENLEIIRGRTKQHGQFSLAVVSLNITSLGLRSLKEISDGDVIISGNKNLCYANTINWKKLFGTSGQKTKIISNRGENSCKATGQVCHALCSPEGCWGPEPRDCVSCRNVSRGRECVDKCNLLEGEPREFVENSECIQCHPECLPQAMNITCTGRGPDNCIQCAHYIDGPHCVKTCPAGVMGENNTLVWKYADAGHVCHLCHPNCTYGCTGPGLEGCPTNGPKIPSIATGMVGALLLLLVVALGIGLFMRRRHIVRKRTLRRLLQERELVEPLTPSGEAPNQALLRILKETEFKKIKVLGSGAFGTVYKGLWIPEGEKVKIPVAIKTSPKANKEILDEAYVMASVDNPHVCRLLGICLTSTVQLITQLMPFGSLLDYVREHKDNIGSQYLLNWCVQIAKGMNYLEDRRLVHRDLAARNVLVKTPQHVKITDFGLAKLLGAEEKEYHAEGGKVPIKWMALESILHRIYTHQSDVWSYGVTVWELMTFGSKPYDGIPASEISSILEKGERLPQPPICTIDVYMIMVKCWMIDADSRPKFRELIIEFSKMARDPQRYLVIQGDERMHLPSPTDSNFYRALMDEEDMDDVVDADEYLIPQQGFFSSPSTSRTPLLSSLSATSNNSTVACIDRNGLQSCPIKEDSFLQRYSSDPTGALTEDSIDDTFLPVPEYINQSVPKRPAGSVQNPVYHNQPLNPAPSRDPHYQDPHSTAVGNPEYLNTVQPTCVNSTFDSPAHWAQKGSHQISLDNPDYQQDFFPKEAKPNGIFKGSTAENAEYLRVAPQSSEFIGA
In short: as §1

[4] = target: EGFR del19/T790M/C797S (Homo sapiens, UniProt P00533, C797S/DEL746-750/T790M); test: Biochemical EGFR kinase assay (Lance Ultra TR-FRET), triple mutant del19/T790M/C797S; details: Km ATP; read-out: IC50 del19/T790M/C797S (nM) Km ATP
Sequence of EGFR del19/T790M/C797S (P00533 with tags, fused parts or gaps DEL746-750/T790M/C797S): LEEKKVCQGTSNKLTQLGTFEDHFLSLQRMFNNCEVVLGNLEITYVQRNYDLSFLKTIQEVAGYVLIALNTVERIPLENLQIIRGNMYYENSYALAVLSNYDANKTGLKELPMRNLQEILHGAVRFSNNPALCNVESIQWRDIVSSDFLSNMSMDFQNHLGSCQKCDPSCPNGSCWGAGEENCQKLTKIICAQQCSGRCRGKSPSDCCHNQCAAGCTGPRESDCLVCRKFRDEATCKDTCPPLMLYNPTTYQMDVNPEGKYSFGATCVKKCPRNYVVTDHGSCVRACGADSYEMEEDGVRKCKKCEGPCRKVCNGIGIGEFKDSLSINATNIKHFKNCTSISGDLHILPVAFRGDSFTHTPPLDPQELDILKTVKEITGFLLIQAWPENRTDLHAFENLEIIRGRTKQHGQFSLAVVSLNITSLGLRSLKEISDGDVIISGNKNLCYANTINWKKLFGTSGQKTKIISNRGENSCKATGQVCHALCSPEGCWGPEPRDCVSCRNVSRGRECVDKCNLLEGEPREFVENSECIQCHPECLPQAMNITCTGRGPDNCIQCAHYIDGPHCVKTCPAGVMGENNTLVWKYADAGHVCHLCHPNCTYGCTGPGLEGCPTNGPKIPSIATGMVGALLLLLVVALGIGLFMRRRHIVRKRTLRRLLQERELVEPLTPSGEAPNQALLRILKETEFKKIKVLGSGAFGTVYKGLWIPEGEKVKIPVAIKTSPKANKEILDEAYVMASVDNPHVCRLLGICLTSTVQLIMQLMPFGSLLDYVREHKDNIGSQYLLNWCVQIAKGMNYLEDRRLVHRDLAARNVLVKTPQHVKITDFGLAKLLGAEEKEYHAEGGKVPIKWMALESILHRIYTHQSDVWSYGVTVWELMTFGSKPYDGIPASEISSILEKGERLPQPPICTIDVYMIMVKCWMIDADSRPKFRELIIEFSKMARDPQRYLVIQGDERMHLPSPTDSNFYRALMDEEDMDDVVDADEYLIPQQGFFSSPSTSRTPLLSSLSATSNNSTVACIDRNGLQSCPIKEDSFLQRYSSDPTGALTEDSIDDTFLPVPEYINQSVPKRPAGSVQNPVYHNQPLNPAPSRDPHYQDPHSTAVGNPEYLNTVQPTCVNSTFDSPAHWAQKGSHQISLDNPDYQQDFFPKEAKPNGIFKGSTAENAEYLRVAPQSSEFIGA
In short: as §1

[5] = target: EGFR L858R/C797S (Homo sapiens, UniProt P00533, C797S/L858R); test: Biochemical EGFR kinase assay (Lance Ultra TR-FRET), double mutant L858R/C797S; details: Km ATP; read-out: IC50 L858R/C797S (nM) Km ATP
In short: as §1

Sequence of EGFR L858R/T790M/C797S (P00533 25-1210 T790M/C797S/L858R): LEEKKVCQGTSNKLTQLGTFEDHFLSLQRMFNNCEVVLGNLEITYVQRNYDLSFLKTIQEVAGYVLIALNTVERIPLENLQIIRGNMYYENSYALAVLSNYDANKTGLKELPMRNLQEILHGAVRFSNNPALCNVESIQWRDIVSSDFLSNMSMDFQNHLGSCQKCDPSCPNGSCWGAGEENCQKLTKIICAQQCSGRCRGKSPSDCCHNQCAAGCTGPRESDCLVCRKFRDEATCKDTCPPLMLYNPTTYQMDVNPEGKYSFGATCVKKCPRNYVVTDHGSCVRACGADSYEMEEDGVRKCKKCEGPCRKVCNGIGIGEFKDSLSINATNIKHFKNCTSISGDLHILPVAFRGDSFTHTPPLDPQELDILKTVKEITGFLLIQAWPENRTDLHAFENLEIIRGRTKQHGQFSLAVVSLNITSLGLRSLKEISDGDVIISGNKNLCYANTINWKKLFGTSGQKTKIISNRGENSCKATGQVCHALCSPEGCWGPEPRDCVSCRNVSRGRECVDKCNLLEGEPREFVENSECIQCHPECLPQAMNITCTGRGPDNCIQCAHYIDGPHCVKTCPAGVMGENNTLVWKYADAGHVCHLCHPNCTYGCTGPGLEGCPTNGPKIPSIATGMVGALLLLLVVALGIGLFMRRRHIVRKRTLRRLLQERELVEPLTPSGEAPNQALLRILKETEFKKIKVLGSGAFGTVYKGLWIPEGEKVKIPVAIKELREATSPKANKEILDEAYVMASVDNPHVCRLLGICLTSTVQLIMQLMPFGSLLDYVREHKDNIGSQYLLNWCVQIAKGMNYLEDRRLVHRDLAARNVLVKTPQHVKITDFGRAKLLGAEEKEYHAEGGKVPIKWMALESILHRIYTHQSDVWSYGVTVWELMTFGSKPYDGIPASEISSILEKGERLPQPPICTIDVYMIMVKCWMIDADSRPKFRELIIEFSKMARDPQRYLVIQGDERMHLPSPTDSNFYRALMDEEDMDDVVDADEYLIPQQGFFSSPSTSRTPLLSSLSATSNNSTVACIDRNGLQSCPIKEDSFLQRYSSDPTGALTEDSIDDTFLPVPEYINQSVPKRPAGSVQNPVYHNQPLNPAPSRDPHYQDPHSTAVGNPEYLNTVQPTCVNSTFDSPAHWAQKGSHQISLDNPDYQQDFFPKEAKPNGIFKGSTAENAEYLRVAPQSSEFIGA

Row | SMILES | IC50 [1] | IC50 [2] | IC50 [3] | IC50 [4] | IC50 [5]
1 | CC(C)Nc1cc(Nc2ccnc(-c3cnn(S(=O)(=O)C4CC4)c3)n2)ncc1-c1cnc(OC(F)F)cn1 [Example 127, N^2-(2-(1-(Cyclopropylsulfonyl)-1H-pyrazol-4-yl)pyrimidin-4-yl)-5-(5-(difluoromethoxy)pyrazin-2-yl)-N^4-isopropylpyridine-2,4-diamine] | 6.6 nM | > 10000 nM | > 10000 nM | 17.5 nM | > 10000 nM
2 | O=S(=O)(C1CC1)n1cc(-c2nccc(Nc3cc(N[C@H]4CC[C@@H](CO)CC4)c(-c4cnc(OC(F)F)cn4)cn3)n2)cn1 [Example 129, ((1s,4s)-4-((2-((2-(1-(Cyclopropylsulfonyl)-1H-pyrazol-4-yl)pyrimidin-4-yl)amino)-5-(5-(difluoromethoxy)pyrazin-2-yl)pyridin-4-yl)amino)cyclohexyl)methanol] | 0.5 nM | 116 nM | 12.6 nM | 1.4 nM | 12.9 nM
3 | CC(C)(O)[C@H]1CC[C@@H](Nc2cc(Nc3ccnc(-c4cnn(S(=O)(=O)C5CC5)c4)n3)ncc2-c2cnc(OC(F)F)cn2)CC1 [Example 130, 2-((1s,4s)-4-((2-((2-(1-(Cyclopropylsulfonyl)-1H-pyrazol-4-yl)pyrimidin-4-yl)amino)-5-(5-(difluoromethoxy)pyrazin-2-yl)pyridin-4-yl)amino)cyclohexyl)propan-2-ol] | 1.7 nM | > 10000 nM | 281 nM | 3.9 nM | 239 nM
4 | CN(C)C[C@H]1CC[C@@H](Nc2cc(Nc3ccnc(-c4cnn(S(=O)(=O)C5CC5)c4)n3)ncc2-c2cnc(OC(F)F)cn2)CC1 [Example 131, N^2-(2-(1-(Cyclopropylsulfonyl)-1H-pyrazol-4-yl)pyrimidin-4-yl)-5-(5-(difluoromethoxy)pyrazin-2-yl)-N^4-((1s,4s)-4-((dimethylamino)methyl)cyclohexyl)pyridine-2,4-diamine] | 0.1 nM | 8.1 nM | 2.1 nM | 0.2 nM | 2.2 nM
5 | CN1CCC(Oc2ccc(-c3cnc(Nc4ccnc(-c5cnn(S(=O)(=O)C6CC6)c5)n4)cc3N[C@H]3CC[C@@H](F)CC3)nc2)CC1 [Example 132, N^6′-(2-(1-(Cyclopropylsulfonyl)-1H-pyrazol-4-yl)pyrimidin-4-yl)-N^4′-((1s,4s)-4-fluorocyclohexyl)-5-((1-methylpiperidin-4-yl)oxy)-[2,3′-bipyridine]-4′,6′-diamine] | 0.4 nM | 0.8 nM | 0.4 nM | 0.4 nM | 0.3 nM
6 | CN1CCC(Oc2ccc(-c3cnc(Nc4ccnc(-c5cnn(CC(F)F)c5)n4)cc3N[C@H]3CC[C@@H](F)CC3)nc2)CC1 [Example 133, N^6′-(2-(1-(2,2-Difluoroethyl)-1H-pyrazol-4-yl)pyrimidin-4-yl)-N^4′-((1s,4s)-4-fluorocyclohexyl)-5-((1-methylpiperidin-4-yl)oxy)-[2,3′-bipyridine]-4′,6′-diamine] | 0.3 nM | 9.3 nM | 1.7 nM | 0.5 nM | 1.4 nM
7 | C[C@]1(O)CC[C@@H](Nc2cc(Nc3ccnc(-c4cnn(S(=O)(=O)C5CC5)c4)n3)ncc2-c2cnc(C(F)(F)F)cn2)CC1 [Example 134, (1s,4s)-4-((2-((2-(1-(Cyclopropylsulfonyl)-1H-pyrazol-4-yl)pyrimidin-4-yl)amino)-5-(5-(trifluoromethyl)pyrazin-2-yl)pyridin-4-yl)amino)-1-methylcyclohexan-1-ol] | 0.6 nM | 34.2 nM | 32.1 nM | 0.9 nM | 15.6 nM
8 | FC(F)Cn1cc(-c2nccc(Nc3cc(N[C@H]4CC[C@@H](F)CC4)c(-c4ccc(CN5CCOCC5)cn4)cn3)n2)cn1 [Example 136, N^6′-(2-(1-(2,2-difluoroethyl)-1H-pyrazol-4-yl)pyrimidin-4-yl)-N^4′-((1s,4s)-4-fluorocyclohexyl)-5-(morpholinomethyl)-[2,3′-bipyridine]-4′,6′-diamine] | 0.2 nM | 69.8 nM | 19.1 nM | 0.5 nM | 6.4 nM
9 | FC(F)Cn1cc(-c2nccc(Nc3cc(N[C@H]4CC[C@@H](F)CC4)c(-c4ccc(N5CCOCC5)cn4)cn3)n2)cn1 [Example 137, N^6′-(2-(1-(2,2-Difluoroethyl)-1H-pyrazol-4-yl)pyrimidin-4-yl)-N^4′-((1s,4s)-4-fluorocyclohexyl)-5-morpholino-[2,3′-bipyridine]-4′,6′-diamine] | 0.2 nM | 272 nM | 74.4 nM | 1.1 nM | 6.4 nM
10 | CN1CCC(Oc2ccc(-c3cnc(Nc4ccnc(-c5cnn(CC(F)F)c5)n4)cc3NC3CCC(F)(F)C3)nc2)CC1 (stereo not shown) [Example 138, N^4′-(3,3-Difluorocyclopentyl)-N^6′-(2-(1-(2,2-difluoroethyl)-1H-pyrazol-4-yl)pyrimidin-4-yl)-5-((1-methylpiperidin-4-yl)oxy)-[2,3′-bipyridine]-4′,6′-diamine] | 0.2 nM | 32 nM | 4.9 nM | 0.1 nM | 1.6 nM
11 | CN1CCC(Oc2ccc(-c3cnc(Nc4ccnc(-c5cnn(CC(F)F)c5)n4)cc3NC3CC(F)(F)C3)nc2)CC1 [Example 139, N^4′-(3,3-Difluorocyclobutyl)-N^6′-(2-(1-(2,2-difluoroethyl)-1H-pyrazol-4-yl)pyrimidin-4-yl)-5-((1-methylpiperidin-4-yl)oxy)-[2,3′-bipyridine]-4′,6′-diamine] | 0.3 nM | 208 nM | 19.4 nM | 0.3 nM | 5 nM
12 | CN1CCC(Oc2ccc(-c3cnc(Nc4ccnc(-c5cnn(S(=O)(=O)C6CC6)c5)n4)cc3NC3CC(F)(F)C3)nc2)CC1 [Example 140, N^6′-(2-(1-(Cyclopropylsulfonyl)-1H-pyrazol-4-yl)pyrimidin-4-yl)-N^4′-(3,3-difluorocyclobutyl)-5-((1-methylpiperidin-4-yl)oxy)-[2,3′-bipyridine]-4′,6′-diamine] | 0.2 nM | 67.6 nM | 8.3 nM | 0.2 nM | 15.1 nM
13 | CN1CCC(Oc2ccc(-c3cnc(Nc4ccnc(-c5cnn(CC(F)F)c5)n4)cc3NC3CCCC(F)C3)nc2)CC1 (stereo not shown) [Example 141, N^6′-(2-(1-(2,2-Difluoroethyl)-1H-pyrazol-4-yl)pyrimidin-4-yl)-N^4′-(3-fluorocyclohexyl)-5-((1-methylpiperidin-4-yl)oxy)-[2,3′-bipyridine]-4′,6′-diamine] | 0.1 nM | 12.4 nM | 1.2 nM | 0.03 nM | 0.8 nM
14 | CN1CCC(Oc2ccc(-c3cnc(Nc4ccnc(-c5cnc6c(c5)CCCO6)n4)cc3N[C@H]3CC[C@@](C)(O)CC3)nc2)CC1 [Example 142, (1s,4s)-4-((6′-((2-(3,4-Dihydro-2H-pyrano[2,3-b]pyridin-6-yl)pyrimidin-4-yl)amino)-5-((1-methylpiperidin-4-yl)oxy)-[2,3′-bipyridin]-4′-yl)amino)-1-methylcyclohexan-1-ol] | 0.03 nM | 17.1 nM | 2 nM | 0.01 nM | 0.8 nM
